Measured values from patent US20220257698A1, “ANGIOTENSIN TYPE 2 (AT2) RECEPTOR AGONISTS FOR USE IN THE TREATMENT OF CANCER” (LANTHIOPEP B.V., priority 2019, published 2022).

Experiments:
[1] = test system: lung carcinoma PDX Lu7433; assay: KcAng(1-7) on growth of lung carcinoma PDX Lu7433 in mice; format: in vivo, NMRI nu/nu mice (human PDX)
Experimental: In vivo studies were conducted at EPO GmbH Berlin. Large studies (FIG. 1A, 2, 3, 4, 5) comprised 3 groups of 10 mice/group and 5 animals as reserve, as outlined in Table 1. Smaller studies (FIG. 1B, 1C, 1D) comprised 2 groups of mice of 3 mice per group. The animals were allocated to the various treatment groups (e.g. 0.2 μg/kg and 30 μg/kg) with a maximum of 10 animals per group. […] The groups received subcutaneous (s.c.) drug injection (for max. 28 days) as outlined in the Table 1.
NMRI nu/nu mice were used in this study. The animals were female at age of 6 to 8 weeks. The respective PDX tumors were inoculated subcutaneously (s.c.), and the tumors were grown to achieve palpable tumor sizes before start of the respective treatments. The PDX included breast (MaCa4151), colon (Co9689A), head & neck (HN10309), lung (Lu7433) and ovarian (OvCa13329) cancer (Table 2).
Treatment with KcAng(1-7) was started with palpable tumors after the randomization of animals regarding tumor volume. KcAng(1-7) was applied s.c. by daily injections at […] or 30 μg/kg dose for a maximum of 28 days (or earlier as defined by the humane end point for the study).
KcAng(1-7) was prepared as follows: The compounds was suspended in sterile PBS resulting in a clear solution. The remains of this formulation were stored at 4° C.
Tumor growth stimulatory or inhibitory activity of the KcAng(1-7) was evaluated by determination of tumor volumes (TV). During the study, tumor volumes and body weight were measured twice a week, and the ratio of the mean tumor volumes between the compound-treated group and the vehicle-treated group (T/C) was calculated.
Tumor volume=(tumor width)×(tumor width)×(tumor length)+2
T/C=T÷C • T: Mean estimated tumor volume of the compound-treated group • C: Mean estimated tumor volume of the vehicle-treated group

[2] = target: tyrosine kinases (PTK) in colon carcinoma PDX lysates; assay: PamChip tyrosine kinase (PTK) activity profiling of colon carcinoma PDX tumor lysates; set-up: species or system human PDX grown in mice; Kinase score: scale not given here; conditions: for Kinase statistic: value<0 = higher activity in vehicle-treated tumors; for Kinase score: vehicle-treated vs KcAng(1-7)-treated tumors
Experimental: In particular, to determine the effect of treatment on kinase activities, Tyrosine (PTK) and Serine/Threonine (STK) PamChip®-based kinase activity profiling in lysates from colon carcinoma PDX was performed by PamGene International B.V., The Netherlands.
PamGene® kinase activity profiles were measured for vehicle-treated colon cancer PDX tumors (control, n=10) and KcAng(1-7)-treated colon cancer PDX tumors (treatment, n=10).
Frozen tissues of tumor samples were processed to make lysates followed by determination of tyrosine kinase and serine/threonine kinase activity profiles. Datasets were analyzed by PamGene bioinformatics toolbox, for example by using PamGene's method called Upstream Kinase Analysis.
Kinase Score was used for ranking kinases based on their significance and specificity in terms of the set of peptides used for the corresponding kinase. Kinase statistics indicates the overall change of the peptide set that represents the kinase. Kinase statistics value<0 indicates higher activity in vehicle-treated tumors.

[3] = Gr. B 0.2 μg/kg/d s.c., Day 11 (Meas. 1)
[4] = Gr. B 0.2 μg/kg/d s.c., Day 14 (Meas. 2)
[5] = Gr. B 0.2 μg/kg/d s.c., Day 18 (Meas. 3)
[6] = Gr. B 0.2 μg/kg/d s.c., Day 21 (Meas. 4)
[7] = Gr. B 0.2 μg/kg/d s.c., Day 25 (Meas. 5)
[8] = Gr. B 0.2 μg/kg/d s.c., Day 28 (Meas. 6)
[9] = Gr. C 30 μg/kg/d s.c., Day 11 (Meas. 1)
[10] = Gr. C 30 μg/kg/d s.c., Day 14 (Meas. 2)
[11] = Gr. C 30 μg/kg/d s.c., Day 18 (Meas. 3)
[12] = Gr. C 30 μg/kg/d s.c., Day 21 (Meas. 4)
[13] = Gr. C 30 μg/kg/d s.c., Day 25 (Meas. 5)
[14] = Gr. C 30 μg/kg/d s.c., Day 28 (Meas. 6)

“Lys-Asp-Arg-Val-Abu/Ala-Ile-His-Abu/Ala (KDRVAIHA; not fully specified; cyclic thioether (Abu/Ala bridge); VARIANT (5)..(5) /replace=“Abu”; VARIANT (8)..(8) /replace=“Abu”; SITE (1)..(8) /note=“Variant residues given in the sequence have no preference with respect to those in the annotations for variant positions”) [KcAng(1-7)]” was tested. Which optT/C ([1]; 0.2 μg/kg) did it give?
Its optT/C is 68.2%.

And the optT/C ([1]; 30 μg/kg)?
The optT/C was 71.9%.

What about the “effect on tumor growth” value ([1]; 0.2 and 30 μg/kg, 19 days) of the same substance?
The value was “moderate but significant decrease in tumor growth”.

What about the “RTV Mean” value [1, 3] of the same substance?
Its value is 1.

And the “RTV Median” value [1, 3]?
Its value is 1.

What about the T/C [1, 3] of the same substance?
Its T/C is 100.1%.

What about the “Tumor Vol. Mean” value [1, 3] of the same substance?
Its value is 0.112 cm^3.

And the “Tumor Vol. Median” value [1, 3]?
Its value is 0.109 cm^3.

What about the “RTV Mean” value [1, 4] of the same substance?
Its value is 1.7.

And the “RTV Median” value [1, 4]?
The value was 1.8.

What about the T/C [1, 4] of the same substance?
The T/C was 88.4%.

And the “Tumor Vol. Mean” value [1, 4]?
The value was 0.187 cm^3.

What about the “Tumor Vol. Median” value [1, 4] of the same substance?
Its value is 0.19 cm^3.

What about the “RTV Mean” value [1, 5] of the same substance?
The value was 3.3.

What about the “RTV Median” value [1, 5] of the same substance?
Its value is 3.4.

And the T/C [1, 5]?
The T/C was 75.1%.

And the “Tumor Vol. Mean” value [1, 5]?
The value was 0.373 cm^3.

And the “Tumor Vol. Median” value [1, 5]?
The value was 0.412 cm^3.

And the “RTV Mean” value [1, 6]?
Its value is 4.2.

And the “RTV Median” value [1, 6]?
The value was 4.3.

And the T/C [1, 6]?
Its T/C is 75.3%.

What about the “Tumor Vol. Mean” value [1, 6] of the same substance?
Its value is 0.473 cm^3.

And the “Tumor Vol. Median” value [1, 6]?
Its value is 0.454 cm^3.

What about the “RTV Mean” value [1, 7] of the same substance?
The value was 5.7.

What about the “RTV Median” value [1, 7] of the same substance?
Its value is 5.6.

What about the T/C [1, 7] of the same substance?
Its T/C is 71%.

And the “Tumor Vol. Mean” value [1, 7]?
The value was 0.643 cm^3.

And the “Tumor Vol. Median” value [1, 7]?
The value was 0.625 cm^3.

And the “RTV Mean” value [1, 8]?
Its value is 7.6.

And the “RTV Median” value [1, 8]?
Its value is 8.1.

What about the T/C [1, 8] of the same substance?
Its T/C is 68.2%.

What about the “Tumor Vol. Mean” value [1, 8] of the same substance?
Its value is 0.844 cm^3.

What about the “Tumor Vol. Median” value [1, 8] of the same substance?
The value was 0.808 cm^3.

What about the “RTV Mean” value [1, 9] of the same substance?
Its value is 1.

What about the “RTV Median” value [1, 9] of the same substance?
Its value is 1.

What about the T/C [1, 9] of the same substance?
Its T/C is 99.7%.

What about the “Tumor Vol. Mean” value [1, 9] of the same substance?
Its value is 0.112 cm^3.

What about the “Tumor Vol. Median” value [1, 9] of the same substance?
The value was 0.099 cm^3.

What about the “RTV Mean” value [1, 10] of the same substance?
Its value is 1.6.

And the “RTV Median” value [1, 10]?
The value was 1.6.

And the T/C [1, 10]?
Its T/C is 85.1%.

What about the “Tumor Vol. Mean” value [1, 10] of the same substance?
The value was 0.18 cm^3.

And the “Tumor Vol. Median” value [1, 10]?
Its value is 0.168 cm^3.

And the “RTV Mean” value [1, 11]?
The value was 3.2.

What about the “RTV Median” value [1, 11] of the same substance?
The value was 3.1.

And the T/C [1, 11]?
The T/C was 71.9%.

What about the “Tumor Vol. Mean” value [1, 11] of the same substance?
Its value is 0.357 cm^3.

What about the “Tumor Vol. Median” value [1, 11] of the same substance?
Its value is 0.376 cm^3.

What about the “RTV Mean” value [1, 12] of the same substance?
The value was 4.3.

And the “RTV Median” value [1, 12]?
Its value is 4.1.

What about the T/C [1, 12] of the same substance?
The T/C was 75.1%.

And the “Tumor Vol. Mean” value [1, 12]?
Its value is 0.472 cm^3.

What about the “Tumor Vol. Median” value [1, 12] of the same substance?
Its value is 0.509 cm^3.

And the “RTV Mean” value [1, 13]?
Its value is 6.1.

What about the “RTV Median” value [1, 13] of the same substance?
The value was 5.9.

And the T/C [1, 13]?
The T/C was 75.3%.

What about the “Tumor Vol. Mean” value [1, 13] of the same substance?
The value was 0.682 cm^3.

And the “Tumor Vol. Median” value [1, 13]?
Its value is 0.719 cm^3.

And the “RTV Mean” value [1, 14]?
The value was 8.2.

And the “RTV Median” value [1, 14]?
Its value is 8.2.

And the T/C [1, 14]?
Its T/C is 73.7%.

What about the “Tumor Vol. Mean” value [1, 14] of the same substance?
Its value is 0.912 cm^3.

What about the “Tumor Vol. Median” value [1, 14] of the same substance?
Its value is 0.991 cm^3.

And the Kinase statistic ([2]; kinase CCK4/PTK7)?
Its Kinase statistic is −0.58.

What about the Kinase score ([2]; kinase CCK4/PTK7) of the same substance?
Its Kinase score is 2.23.

And the Kinase statistic ([2]; kinase EPHA1)?
Its Kinase statistic is −0.52.

What about the Kinase score ([2]; kinase EPHA1) of the same substance?
The Kinase score was 2.01.

And the Kinase statistic ([2]; kinase EPHA2)?
Its Kinase statistic is −0.50.

What about the Kinase score ([2]; kinase EPHA2) of the same substance?
The Kinase score was 1.96.

And the Kinase statistic ([2]; kinase EPHA3)?
Its Kinase statistic is −0.55.

And the Kinase score ([2]; kinase EPHA3)?
Its Kinase score is 2.38.

And the Kinase statistic ([2]; kinase EPHA4)?
The Kinase statistic was −0.52.

And the Kinase score ([2]; kinase EPHA4)?
Its Kinase score is 2.55.

And the Kinase statistic ([2]; kinase EPHA8)?
The Kinase statistic was −0.51.

What about the Kinase score ([2]; kinase EPHA8) of the same substance?
Its Kinase score is 1.71.

And the Kinase statistic ([2]; kinase FER)?
Its Kinase statistic is −0.51.

What about the Kinase score ([2]; kinase FER) of the same substance?
The Kinase score was 2.49.

And the Kinase statistic ([2]; kinase FES)?
The Kinase statistic was −0.47.

And the Kinase score ([2]; kinase FES)?
Its Kinase score is 1.84.

And the Kinase statistic ([2]; kinase FGFR1)?
The Kinase statistic was −0.49.

And the Kinase score ([2]; kinase FGFR1)?
Its Kinase score is 2.39.

And the Kinase statistic ([2]; kinase FGFR2)?
Its Kinase statistic is −0.47.

What about the Kinase score ([2]; kinase FGFR2) of the same substance?
The Kinase score was 1.82.

And the Kinase statistic ([2]; kinase FGFR3)?
The Kinase statistic was −0.48.

And the Kinase score ([2]; kinase FGFR3)?
Its Kinase score is 1.89.

And the Kinase statistic ([2]; kinase HER2)?
Its Kinase statistic is −0.47.

What about the Kinase score ([2]; kinase HER2) of the same substance?
Its Kinase score is 2.68.

And the Kinase statistic ([2]; kinase HER4)?
The Kinase statistic was −0.47.

And the Kinase score ([2]; kinase HER4)?
Its Kinase score is 2.11.

What about the Kinase statistic ([2]; kinase JAK1~B) of the same substance?
Its Kinase statistic is −0.49.

And the Kinase score ([2]; kinase JAK1~B)?
The Kinase score was 1.70.

What about the Kinase statistic ([2]; kinase LMR1) of the same substance?
Its Kinase statistic is −0.71.

And the Kinase score ([2]; kinase LMR1)?
Its Kinase score is 4.10.

What about the Kinase statistic ([2]; kinase MER) of the same substance?
The Kinase statistic was −0.44.

What about the Kinase score ([2]; kinase MER) of the same substance?
Its Kinase score is 1.74.

What about the Kinase statistic ([2]; kinase MET) of the same substance?
The Kinase statistic was −0.46.

And the Kinase score ([2]; kinase MET)?
Its Kinase score is 2.16.

What about the Kinase statistic ([2]; kinase TEC) of the same substance?
The Kinase statistic was −0.44.

And the Kinase score ([2]; kinase TEC)?
Its Kinase score is 1.79.

And the Kinase statistic ([2]; kinase TXK)?
The Kinase statistic was −0.46.

What about the Kinase score ([2]; kinase TXK) of the same substance?
The Kinase score was 2.05.

What about the Kinase statistic ([2]; kinase TYRO3/SKY) of the same substance?
The Kinase statistic was −0.45.

What about the Kinase score ([2]; kinase TYRO3/SKY) of the same substance?
Its Kinase score is 2.03.
